# Results: ChEMBL document CHEMBL1158287, “Identification of ent-16 beta, 17-dihydroxykauran-19-oic acid as an anti-HIV principle and isolation of the new diterpenoids annosquamosins A and B from Annona squamosa” (J Nat Prod, 1996)
# The source made the active and inactive calls. No cut-off for these calls is given here.
# System: not listed separately
# Assay: Therapeutic index, ratio of inhibition of human H9 cells to EC50 for HIV1 3B
# Format: cell-based
# Conditions: not given
row,Structure (SMILES),selectivity ratio
1,C[C@@]12CCC[C@@](C)(C(=O)O)[C@H]1CC[C@@]13C[C@@H](CC[C@H]12)[C@](O)(CO)C3,> 5

# System: Human immunodeficiency virus 1
# Assay: Antiviral activity against HIV1 3B replication in human H9 cells after 3 days by p24 antigen capture assay
# Format: functional, organism-based
# Conditions: Human immunodeficiency virus 1, 3B, H9, 72 h
row,EC50,Structure (SMILES)
1,0.8 µg/mL,C[C@@]12CCC[C@@](C)(C(=O)O)[C@H]1CC[C@@]13C[C@@H](CC[C@H]12)[C@](O)(CO)C3

# System: Human immunodeficiency virus 1
# Assay: Antiviral activity against HIV1 3B replication in human H9 cells up to 100 ug/mL after 3 days by p24 antigen capture assay
# Format: functional, organism-based
# Conditions: not given
row,Structure (SMILES),Activity
1,C[C@@]12CCC[C@@](C)(C=O)[C@H]1CC[C@@]13C[C@H](CC[C@H]12)[C@H](C(=O)O)C3,inactive
2,C[C@@]1(CO)CCC[C@]2(C)[C@@H]1CC[C@@]13C[C@H](CC[C@H]12)[C@](O)(CO)C3,inactive
3,C[C@@]12CCC[C@@](C)(C=O)[C@H]1CC[C@@]13C[C@@H](CC[C@H]12)[C@](O)(CO)C3,inactive
4,C[C@@]12CCC[C@@](C)(O)[C@H]1CC[C@@]13C[C@H](CC[C@H]12)[C@](O)(CO)C3,inactive
5,CC(=O)OC[C@@H]1C[C@@]23CC[C@H]4[C@@](C)(CCC[C@@]4(C)C(=O)O)[C@@H]2CC[C@H]1C3,inactive
6,C[C@@]12CCC[C@@](C)(C(=O)O)[C@H]1CC[C@]13CC(CO)[C@@H](CC[C@H]12)C3 (mixture of isomers),inactive
7,C[C@@]12CCC[C@@](C)(C(=O)O)[C@H]1CC[C@@]13C[C@H](CC[C@H]12)[C@@](O)(CO)C3,inactive
8,C[C@@]12CCC[C@@](C)(C=O)[C@H]1CC[C@]13C[C@@H](CO)[C@@H](CC[C@H]12)C3,inactive
9,CC(=O)OC[C@]1(O)C[C@@]23CC[C@H]4[C@@](C)(CCC[C@@]4(C)C=O)[C@@H]2CC[C@H]1C3,inactive
10,C=C1C[C@@]23CC[C@@H]4[C@](C)(CO)CCC[C@@]4(C)[C@@H]2CC[C@H]1C3,inactive
11,C[C@@]12CCC[C@@](C)(O)[C@H]1CC[C@@]13C[C@H](CC[C@H]12)[C@H](C(=O)O)C3,inactive
12,C=C1C[C@@]23CC[C@H]4[C@@](C)(CCC[C@@]4(C)C(=O)O)[C@@H]2CC[C@@H]1C3,inactive
